Source: PubChem BioAssay AID1745844 (Carcinogenic Potency Database (CPDB), 2022)

System: rodent lifetime carcinogenesis bioassay, tumor incidence TD50
Assay: chronic cancer bioassays in animals – CPDB, compiled studies (AID 1745844)
Conditions: in feed

Work on OCC(CO)(CBr)CBr yielded a TD50 (mouse, strain B6C3F1, females, site: Harderian gland + lung + subcutaneous tissue, lesion: adenoma + adenoma, bilateral + carcinoma + alveolar/bronchiolar adenoma + alveolar/bronchiolar carcinoma + fibrosarcoma + sarcoma, dosed 104 weeks, study length 106 weeks) of 67.8 mg/kg/day, a TD50 (mouse, strain B6C3F1, females, site: Harderian gland, lesion: adenoma + adenoma, bilateral + carcinoma, dosed 104 weeks, study length 106 weeks) of 122 mg/kg/day and a TD50 (mouse, strain B6C3F1, females, site: Harderian gland, lesion: adenoma + adenoma, bilateral, dosed 104 weeks, study length 106 weeks) of 187 mg/kg/day. The TD50 (mouse, strain B6C3F1, females, site: Harderian gland, lesion: carcinoma, dosed 104 weeks, study length 106 weeks) was 323 mg/kg/day, the TD50 (mouse, strain B6C3F1, females, site: all sites, lesion: hemangioma + hemangiosarcoma, dosed 104 weeks, study length 106 weeks) was 846 mg/kg/day and the TD50 (mouse, strain B6C3F1, females, site: all sites, lesion: hemangiosarcoma, dosed 104 weeks, study length 106 weeks) was 1480 mg/kg/day. It also gave a TD50 (mouse, strain B6C3F1, females, site: any site (literature study), lesion: several types, types named in the paper, dosed 104 weeks, study length 106 weeks) of 57.3 mg/kg/day, a TD50 (mouse, strain B6C3F1, females, site: forestomach, lesion: squamous-cell papilloma, dosed 104 weeks, study length 106 weeks) of 446 mg/kg/day and a TD50 (mouse, strain B6C3F1, females, site: liver, lesion: hepatocellular adenoma + hepatoblastoma + hepatocellular carcinoma, dosed 104 weeks, study length 106 weeks) of 267 mg/kg/day. For the same molecule, the TD50 (mouse, strain B6C3F1, females, site: liver, lesion: hepatocellular adenoma, dosed 104 weeks, study length 106 weeks) was 301 mg/kg/day, the TD50 (mouse, strain B6C3F1, females, site: lung, lesion: alveolar/bronchiolar adenoma + alveolar/bronchiolar carcinoma, dosed 104 weeks, study length 106 weeks) was 127 mg/kg/day and the TD50 (mouse, strain B6C3F1, females, site: lung, lesion: alveolar/bronchiolar adenoma, dosed 104 weeks, study length 106 weeks) was 171 mg/kg/day. For the same molecule, the TD50 (mouse, strain B6C3F1, females, site: lung, lesion: alveolar/bronchiolar carcinoma, dosed 104 weeks, study length 106 weeks) was 398 mg/kg/day, the TD50 (mouse, strain B6C3F1, females, site: mammary gland, lesion: carcinoma, dosed 104 weeks, study length 106 weeks) was 1480 mg/kg/day and the TD50 (mouse, strain B6C3F1, females, site: subcutaneous tissue, lesion: fibrosarcoma + sarcoma, dosed 104 weeks, study length 106 weeks) was 322 mg/kg/day. For the same molecule, the TD50 (mouse, strain B6C3F1, females, site: subcutaneous tissue, lesion: sarcoma, dosed 104 weeks, study length 106 weeks) was 350 mg/kg/day, the TD50 (mouse, strain B6C3F1, males, site: Harderian gland + kidney + lung, lesion: adenoma + adenoma, bilateral + carcinoma + carcinoma, bilateral + tubule adenoma + alveolar/bronchiolar adenoma + alveolar/bronchiol, dosed 104 weeks, study length 105 weeks) was 106 mg/kg/day and the TD50 (mouse, strain B6C3F1, males, site: Harderian gland, lesion: adenoma + adenoma, bilateral + carcinoma + carcinoma, bilateral, dosed 104 weeks, study length 105 weeks) was 155 mg/kg/day. It also gave a TD50 (mouse, strain B6C3F1, males, site: Harderian gland, lesion: adenoma + adenoma, bilateral, dosed 104 weeks, study length 105 weeks) of 191 mg/kg/day, a TD50 (mouse, strain B6C3F1, males, site: any site (literature study), lesion: several types, types named in the paper, dosed 104 weeks, study length 105 weeks) of 126 mg/kg/day and a TD50 (mouse, strain B6C3F1, males, site: forestomach, lesion: squamous-cell carcinoma + squamous-cell papilloma, dosed 104 weeks, study length 105 weeks) of 581 mg/kg/day. It also gave a TD50 (mouse, strain B6C3F1, males, site: kidney, lesion: tubule adenoma, dosed 104 weeks, study length 105 weeks) of 1190 mg/kg/day, a TD50 (mouse, strain B6C3F1, males, site: liver, lesion: hepatocellular adenoma + hepatoblastoma + hepatocellular carcinoma, dosed 104 weeks, study length 105 weeks) of 2480 mg/kg/day and a TD50 (mouse, strain B6C3F1, males, site: lung, lesion: alveolar/bronchiolar adenoma + alveolar/bronchiolar carcinoma, dosed 104 weeks, study length 105 weeks) of 218 mg/kg/day. For the same molecule, the TD50 (mouse, strain B6C3F1, males, site: lung, lesion: alveolar/bronchiolar adenoma, dosed 104 weeks, study length 105 weeks) was 270 mg/kg/day, the TD50 (mouse, strain B6C3F1, males, site: lung, lesion: alveolar/bronchiolar carcinoma, dosed 104 weeks, study length 105 weeks) was 334 mg/kg/day and the TD50 (mouse, strain B6C3F1, males, site: thyroid gland, lesion: follicular-cell adenoma, dosed 104 weeks, study length 105 weeks) was 835 mg/kg/day. For the same molecule, the TD50 (rat, strain Fischer 344, females, site: all sites, lesion: mononuclear-cell leukemia, dosed 104 weeks, study length 105 weeks) was 406 mg/kg/day, the TD50 (rat, strain Fischer 344, females, site: any site (literature study), lesion: several types, types named in the paper, dosed 104 weeks, study length 105 weeks) was 94.4 mg/kg/day and the TD50 (rat, strain Fischer 344, females, site: esophagus + mammary gland + palate + thyroid gland + tongue, lesion: squamous-cell papilloma + adenoma + carcinoma + fibroadenoma + squamous-cell carcinoma + follicular-cell adenoma + follicular-cell c, dosed 104 weeks, study length 105 weeks) was 84.3 mg/kg/day. For the same molecule, the TD50 (rat, strain Fischer 344, females, site: esophagus, lesion: squamous-cell papilloma, dosed 104 weeks, study length 105 weeks) was 1410 mg/kg/day, the TD50 (rat, strain Fischer 344, females, site: mammary gland, lesion: adenoma + carcinoma + fibroadenoma, dosed 104 weeks, study length 105 weeks) was 83.8 mg/kg/day and the TD50 (rat, strain Fischer 344, females, site: mammary gland, lesion: adenoma + fibroadenoma, dosed 104 weeks, study length 105 weeks) was 83 mg/kg/day. It also gave a TD50 (rat, strain Fischer 344, females, site: mammary gland, lesion: fibroadenoma, dosed 104 weeks, study length 105 weeks) of 83 mg/kg/day, a TD50 (rat, strain Fischer 344, females, site: palate + tongue, lesion: squamous-cell carcinoma + squamous-cell papilloma, dosed 104 weeks, study length 105 weeks) of 1010 mg/kg/day and a TD50 (rat, strain Fischer 344, females, site: palate + tongue, lesion: squamous-cell papilloma, dosed 104 weeks, study length 105 weeks) of 1240 mg/kg/day. The TD50 (rat, strain Fischer 344, females, site: pituitary gland, lesion: pars distalis adenoma, dosed 104 weeks, study length 105 weeks) was 300 mg/kg/day, the TD50 (rat, strain Fischer 344, females, site: subcutaneous tissue, lesion: fibrosarcoma + fibroma + sarcoma, dosed 104 weeks, study length 105 weeks) was 1370 mg/kg/day and the TD50 (rat, strain Fischer 344, females, site: subcutaneous tissue, lesion: fibrosarcoma + sarcoma, dosed 104 weeks, study length 105 weeks) was 4200 mg/kg/day. It also gave a TD50 (rat, strain Fischer 344, females, site: thyroid gland, lesion: follicular-cell adenoma + follicular-cell carcinoma, dosed 104 weeks, study length 105 weeks) of 1670 mg/kg/day, a TD50 (rat, strain Fischer 344, females, site: thyroid gland, lesion: follicular-cell adenoma, dosed 104 weeks, study length 105 weeks) of 2160 mg/kg/day and a TD50 (rat, strain Fischer 344, females, site: tongue, lesion: squamous-cell carcinoma + squamous-cell papilloma, dosed 104 weeks, study length 105 weeks) of 1260 mg/kg/day. The TD50 (rat, strain Fischer 344, females, site: tongue, lesion: squamous-cell papilloma, dosed 104 weeks, study length 105 weeks) was 1360 mg/kg/day, the TD50 (rat, strain Fischer 344, females, site: uterus, lesion: endometrial stromal polyp + endometrial stromal sarcoma, dosed 104 weeks, study length 105 weeks) was 859 mg/kg/day and the TD50 (rat, strain Fischer 344, females, site: uterus, lesion: endometrial stromal polyp, dosed 104 weeks, study length 105 weeks) was 904 mg/kg/day. The TD50 (rat, strain Fischer 344, males, site: Zymbal's gland, lesion: adenoma + carcinoma + carcinoma, bilateral, dosed 12 weeks, study length 103 weeks) was 138 mg/kg/day, the TD50 (rat, strain Fischer 344, males, site: Zymbal's gland, lesion: adenoma + carcinoma, dosed 104 weeks, study length 105 weeks) was 1600 mg/kg/day and the TD50 (rat, strain Fischer 344, males, site: Zymbal's gland, lesion: adenoma, dosed 104 weeks, study length 105 weeks) was 1950 mg/kg/day. For the same molecule, the TD50 (rat, strain Fischer 344, males, site: Zymbal's gland, lesion: carcinoma + carcinoma, bilateral, dosed 12 weeks, study length 103 weeks) was 138 mg/kg/day, the TD50 (rat, strain Fischer 344, males, site: all sites + colon + esophagus + gingiva + jejunum + lung + mammary gland + palate + skin + subcutaneous tissue + thyroid gland + tongue + urinar, lesion: mononuclear-cell leukemia + mesothelioma, malignant + adenomatous polyp + squamous-cell papilloma + squamous-cell carcinoma + carc, dosed 104 weeks, study length 105 weeks) was 68.1 mg/kg/day and the TD50 (rat, strain Fischer 344, males, site: all sites, lesion: mesothelioma, malignant, dosed 12 weeks, study length 103 weeks) was 28.4 mg/kg/day. The TD50 (rat, strain Fischer 344, males, site: all sites, lesion: mesothelioma, malignant, dosed 104 weeks, study length 105 weeks) was 335 mg/kg/day, the TD50 (rat, strain Fischer 344, males, site: all sites, lesion: mononuclear-cell leukemia, dosed 12 weeks, study length 103 weeks) was 22.5 mg/kg/day and the TD50 (rat, strain Fischer 344, males, site: all sites, lesion: mononuclear-cell leukemia, dosed 104 weeks, study length 105 weeks) was 95.8 mg/kg/day. For the same molecule, the TD50 (rat, strain Fischer 344, males, site: any site (literature study), lesion: several types, types named in the paper, dosed 12 weeks, study length 103 weeks) was 6.25 mg/kg/day, the TD50 (rat, strain Fischer 344, males, site: any site (literature study), lesion: several types, types named in the paper, dosed 104 weeks, study length 105 weeks) was 63.8 mg/kg/day and the TD50 (rat, strain Fischer 344, males, site: colon + rectum, lesion: adenomatous polyp + carcinoma, dosed 12 weeks, study length 103 weeks) was 146 mg/kg/day. It also gave a TD50 (rat, strain Fischer 344, males, site: colon + rectum, lesion: adenomatous polyp, dosed 12 weeks, study length 103 weeks) of 152 mg/kg/day, a TD50 (rat, strain Fischer 344, males, site: colon, lesion: adenomatous polyp, dosed 104 weeks, study length 105 weeks) of 997 mg/kg/day and a TD50 (rat, strain Fischer 344, males, site: esophagus, lesion: squamous-cell papilloma, dosed 104 weeks, study length 105 weeks) of 1390 mg/kg/day. The TD50 (rat, strain Fischer 344, males, site: forestomach, lesion: squamous-cell papilloma, dosed 12 weeks, study length 103 weeks) was 217 mg/kg/day, the TD50 (rat, strain Fischer 344, males, site: forestomach, lesion: squamous-cell papilloma, dosed 104 weeks, study length 105 weeks) was 16000 mg/kg/day and the TD50 (rat, strain Fischer 344, males, site: gingiva + palate + tongue, lesion: squamous-cell carcinoma + squamous-cell papilloma, dosed 104 weeks, study length 105 weeks) was 285 mg/kg/day. It also gave a TD50 (rat, strain Fischer 344, males, site: ileum + jejunum, lesion: carcinoma + adenomatous polyp, dosed 12 weeks, study length 103 weeks) of 363 mg/kg/day, a TD50 (rat, strain Fischer 344, males, site: ileum + jejunum, lesion: carcinoma, dosed 12 weeks, study length 103 weeks) of 445 mg/kg/day and a TD50 (rat, strain Fischer 344, males, site: jejunum, lesion: carcinoma, dosed 104 weeks, study length 105 weeks) of 5660 mg/kg/day.
